According to article PMC10343654, “Evaluation of Novel B1R/B2R Agonists Containing TRIOZAN™ Nanoparticles for Targeted Brain Delivery of Antibodies in a Mouse Model of Alzheimer Disease” (Molecules, 2023):
Square brackets hold non-standard residues; d marks the D form. Peptide text beside a SMILES is read from it. ξ: configuration not given here. Oic = O=C(O)[C@@H]1C[C@@H]2CCCC[C@@H]2N1; d2Nal = N[C@H](Cc1ccc2ccccc2c1)C(=O)O; Hyp = O=C(O)[C@@H]1C[C@@H](O)CN1; 2Thi = N[C@@H](Cc1cccs1)C(=O)O; Gly(N-cHex) = O=C(O)CNC1CCCCC1; ξαMeF = CC(N)(Cc1ccccc1)C(=O)O; Orn = NCCC[C@H](N)C(=O)O; βAla = NCCC(=O)O; Mpa = O=C(O)CCS

B1: ANX-005: C1q function blocking humanized IgG4 mAb (Annexon Biosciences) (antibody, chains of the INN, looked up, V domains shown)
VH: QVQLVQSGAELKKPGASVKVSCKSSGYHFTSYWMHWVKQAPGQGLEWIGVIHPNSGSINYNEKFESRVTITVDKSTSTAYMELSSLRSEDTAVYYCAGERDSTEVLPMDYWGQGTTVTVSS
VL: DVQITQSPSSLSASLGERATINCRASKSINKYLAWYQQKPGKAPKLLIYSGSTLQSGIPARFSGSGSGTDFTLTISSLEPEDFAMYYCQQHNEYPLTFGQGTKLEIK

How the values were obtained:
human kinin B1R = molecular target: T1, human kinin B1R (Homo sapiens, UniProt P46663); assay: Competition binding assay on HEK293 cells stably expressing human kinin B1R, radioligand [3H]Lys[Leu8]desArg9BK; settings: displacement of radioligand, read-out: hB1R IC50
T1 construct: expressed in transfected cells
T1 sequence (P46663 1-353): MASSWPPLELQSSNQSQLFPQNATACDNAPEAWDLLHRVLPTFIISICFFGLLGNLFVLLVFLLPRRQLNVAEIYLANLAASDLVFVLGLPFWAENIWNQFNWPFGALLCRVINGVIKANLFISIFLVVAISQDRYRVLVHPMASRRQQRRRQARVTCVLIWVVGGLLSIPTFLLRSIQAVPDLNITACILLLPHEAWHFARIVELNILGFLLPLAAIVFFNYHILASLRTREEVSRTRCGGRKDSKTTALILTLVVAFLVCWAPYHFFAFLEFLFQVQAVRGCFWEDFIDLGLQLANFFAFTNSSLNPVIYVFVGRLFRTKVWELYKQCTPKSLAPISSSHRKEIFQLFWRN
Procedure: (§1) Competition binding assays were carried out essentially as described previously. Briefly, HEK293 cells stably expressing either human kinin B1R or B2R were grown in 24-well plates and incubated with 4 nM [^3H]Lys[[…]]desArg^9BK (for B1R) or with 1 nM [^3H]BK/well (for B2R) in serum-free DMEM for 1-2 h in the absence or presence of increasing concentrations of competitors ([…]-10^-5 M for peptides; 10^-10-10^-4 g/mL for peptides-coupled NPs). Radioactivity of samples was measured by a β-scintillation counter (PerkinElmer, Woodbridge, ON, Canada). Binding affinities of compounds were expressed in terms of IC50 values-the concentrations of competing compounds (i.e., free peptides, TMC-peptides conjugates and peptides coupled to NPs) causing 50% displacement of specific binding of the radioligand. Data are means of 2-3 independent experiments.

human kinin B2R = molecular target: T2, human kinin B2R (Homo sapiens, UniProt P30411); assay: Competition binding assay on HEK293 cells stably expressing human kinin B2R, radioligand [3H]BK; settings: displacement of [3H]BK, read-out: hB2R IC50
T2 construct: expressed in transfected cells
T2 sequence (P30411 1-391): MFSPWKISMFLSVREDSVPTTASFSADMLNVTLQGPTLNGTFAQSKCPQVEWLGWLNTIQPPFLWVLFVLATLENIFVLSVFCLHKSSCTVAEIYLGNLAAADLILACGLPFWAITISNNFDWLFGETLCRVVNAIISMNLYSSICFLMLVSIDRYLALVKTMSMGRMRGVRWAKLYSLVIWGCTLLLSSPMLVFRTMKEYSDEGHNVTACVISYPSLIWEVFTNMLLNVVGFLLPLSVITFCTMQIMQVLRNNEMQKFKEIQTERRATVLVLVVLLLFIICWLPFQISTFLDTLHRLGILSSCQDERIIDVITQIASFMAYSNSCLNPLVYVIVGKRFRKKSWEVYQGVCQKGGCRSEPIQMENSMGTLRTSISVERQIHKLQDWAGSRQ
Procedure: as §1

[1] = design: method as in PMID 30837797; settings: in rodents; cited from earlier work

Molecule	IC50 (human kinin B1R)	IC50 (human kinin B2R)	half-life (t½) [1]
N=C(N)NCCC[C@H](NC(=O)[C@H](CCCCN)NC(=O)CCNC(=O)CCS)C(=O)N1CCC[C@H]1C(=O)N1CCC[C@H]1C(=O)NCC(=O)N[C@@H](Cc1ccccc1)C(=O)N[C@@H](CO)C(=O)N1CCC[C@H]1C(=O)N[C@H](Cc1ccccc1)C(=O)O [MAB7108, Mpa-βAla-Lys-Arg-Pro-Pro-Gly-Phe-Ser-Pro-DPhe-OH]	0.8 nM	–	–
TRIOZAN™-MAB7053: TRIOZAN (trimethyl chitosan) conjugated with 7 equivalents of B2R agonist peptide MAB7053 (RPPGXSXXR; Residue 3 is Hyp (trans-4-hydroxy-L-Pro); residues 5 and 8 are Thi (alpha-(2-thienyl)-L-Ala); residue 7 is N-cyclohexyl-Gly; free C-terminal acid; N-terminal Mpa-betaAla spacer, thioether-linked via M)	–	10600 nM	–
CNCC(=O)N[C@@H](CCCCN)C(=O)N[C@@H](CCCNC(=N)N)C(=O)N1CCC[C@H]1C(=O)N1CCC[C@H]1C(=O)NCC(=O)N[C@@H](Cc1ccccc1)C(=O)N[C@@H](CO)C(=O)N1CCC[C@H]1C(=O)N[C@H](Cc1ccccc1)C(=O)O [NG29, Sar-Lys-Arg-Pro-Pro-Gly-Phe-Ser-Pro-DPhe-OH]	0.5 nM	> 10000 nM	–
N=C(N)NCCC[C@H](NC(=O)[C@H](Cc1cccs1)NC(=O)CN(C(=O)[C@H](CO)NC(=O)[C@H](Cc1cccs1)NC(=O)CNC(=O)[C@@H]1C[C@@H](O)CN1C(=O)[C@@H]1CCCN1C(=O)[C@H](CCCNC(=N)N)NC(=O)CCNC(=O)CCS)C1CCCCC1)C(=O)O [MAB7053, Mpa-βAla-Arg-Pro-Hyp-Gly-Thi-Ser-^NChg-Thi-Arg-OH] ([Mpa][βAla]RP[Hyp]G[2Thi]S[Gly(N-cHex)][2Thi]R-OH)	–	1180 nM	–
CC[C@H](C)[C@H](NC(=O)[C@@H](Cc1ccc2ccccc2c1)NC(=O)[C@H](CO)NC(=O)C(C)(Cc1ccccc1)NC(=O)CNC(=O)[C@@H]1CCCN1C(=O)[C@@H]1C[C@@H]2CCCC[C@@H]2N1C(=O)[C@H](CCCNC(=N)N)NC(=O)[C@H](CCCN)NC(=O)CCNC(=O)CCS)C(=O)O (stereo partly drawn) [MAB7122, Mpa-βAla-Orn-Arg-Oic-Pro-Gly-(αMe)Phe-Ser-DβNal-Ile-OH] ([Mpa][βAla][Orn]R[Oic]PG[ξαMeF]S[d2Nal]I-OH)	10 nM	–	–
CC[C@H](C)[C@H](NC(=O)[C@@H](Cc1ccc2ccccc2c1)NC(=O)[C@H](CO)NC(=O)C(C)(Cc1ccccc1)NC(=O)CNC(=O)[C@@H]1CCCN1C(=O)[C@@H]1C[C@@H]2CCCC[C@@H]2N1C(=O)[C@H](CCCNC(=N)N)NC(=O)[C@H](CCCN)NC(C)=O)C(=O)O (stereo partly drawn) [R954, AcOrn-Arg-Oic-Pro-Gly-(αMe)Phe-Ser-DβNal-Ile-OH] (Ac-[Orn]R[Oic]PG[ξαMeF]S[d2Nal]I-OH)	2 nM	> 10000 nM	–
N=C(N)NCCC[C@H](NC(=O)[C@H](Cc1cccs1)NC(=O)CN(C(=O)[C@H](CO)NC(=O)[C@H](Cc1cccs1)NC(=O)CNC(=O)[C@@H]1C[C@@H](O)CN1C(=O)[C@@H]1CCCN1C(=O)[C@@H](N)CCCNC(=N)N)C1CCCCC1)C(=O)O [NG291, H-Arg-Pro-Hyp-Gly-Thi-Ser-^NChg-Thi-Arg-OH] (H-RP[Hyp]G[2Thi]S[Gly(N-cHex)][2Thi]R-OH)	> 10000 nM	2 nM	–
B1	–	–	~ 18 h
